Broadly, the CC50 is the concentration giving 50% cytotoxicity. A word on the AC50: it is the midpoint of the concentration-response curve, whichever way the signal moves. By GI50 is commonly meant the concentration that inhibits growth by half.

Results on 14 compounds are retold here after ChEMBL document CHEMBL1201862, “PubChem BioAssay data set” (2004).

Experiment [1] addresses T1, Caspase-3 (Homo sapiens, UniProt P42574).
T1 sequence (P42574 whole entry): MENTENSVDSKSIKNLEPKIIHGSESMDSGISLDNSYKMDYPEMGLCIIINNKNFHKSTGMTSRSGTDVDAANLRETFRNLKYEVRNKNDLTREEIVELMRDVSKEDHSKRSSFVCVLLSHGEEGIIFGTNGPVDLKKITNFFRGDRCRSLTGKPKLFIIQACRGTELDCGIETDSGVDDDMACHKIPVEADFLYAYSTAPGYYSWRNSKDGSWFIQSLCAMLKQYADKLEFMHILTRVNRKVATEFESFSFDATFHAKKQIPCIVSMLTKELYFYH
The experiment is classed as functional.

The target in experiment [2] is T2, Sentrin-specific protease 7 (Homo sapiens, UniProt Q9BQF6).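 Further: Luminescence-based dose-response confirmation of ultra-high-throughput screening hits, measuring inhibition of SENP7.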
T2 sequence (Q9BQF6 whole entry): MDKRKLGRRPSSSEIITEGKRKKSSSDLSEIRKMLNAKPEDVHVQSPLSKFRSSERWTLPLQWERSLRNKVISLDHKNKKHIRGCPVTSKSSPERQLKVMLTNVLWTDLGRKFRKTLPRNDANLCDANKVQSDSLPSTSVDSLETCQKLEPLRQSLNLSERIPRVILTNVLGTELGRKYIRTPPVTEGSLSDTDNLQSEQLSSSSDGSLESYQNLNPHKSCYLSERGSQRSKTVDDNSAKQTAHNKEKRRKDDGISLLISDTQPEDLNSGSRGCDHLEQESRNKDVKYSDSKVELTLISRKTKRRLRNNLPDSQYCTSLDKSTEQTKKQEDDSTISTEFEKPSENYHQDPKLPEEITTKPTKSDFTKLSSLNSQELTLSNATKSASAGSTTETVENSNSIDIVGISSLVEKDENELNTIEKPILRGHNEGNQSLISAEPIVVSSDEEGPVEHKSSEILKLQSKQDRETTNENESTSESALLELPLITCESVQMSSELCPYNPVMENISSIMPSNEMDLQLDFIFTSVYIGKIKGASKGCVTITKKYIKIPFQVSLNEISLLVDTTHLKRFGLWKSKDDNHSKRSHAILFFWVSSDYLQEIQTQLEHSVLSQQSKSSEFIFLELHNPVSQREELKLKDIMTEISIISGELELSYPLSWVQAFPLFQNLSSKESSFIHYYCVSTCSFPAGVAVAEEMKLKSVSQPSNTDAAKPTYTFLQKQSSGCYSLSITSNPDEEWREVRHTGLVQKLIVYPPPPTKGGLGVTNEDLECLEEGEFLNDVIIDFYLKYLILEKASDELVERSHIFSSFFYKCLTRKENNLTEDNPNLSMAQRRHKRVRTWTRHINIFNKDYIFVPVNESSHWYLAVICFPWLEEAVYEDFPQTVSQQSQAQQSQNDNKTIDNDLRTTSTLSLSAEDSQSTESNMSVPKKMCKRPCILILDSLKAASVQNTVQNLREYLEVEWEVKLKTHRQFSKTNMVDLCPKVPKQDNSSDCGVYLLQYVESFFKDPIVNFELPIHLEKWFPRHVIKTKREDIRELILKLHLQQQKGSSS
The experiment is classed as functional.

For experiment [3], the target named is T3, Sentrin-specific protease 6 (Homo sapiens, UniProt Q9GZR1).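 Further: Luminescence-based dose-response confirmatory assay of SENP6 inhibition, following up an ultra-high-throughput screen.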
T3 sequence (Q9GZR1 whole entry): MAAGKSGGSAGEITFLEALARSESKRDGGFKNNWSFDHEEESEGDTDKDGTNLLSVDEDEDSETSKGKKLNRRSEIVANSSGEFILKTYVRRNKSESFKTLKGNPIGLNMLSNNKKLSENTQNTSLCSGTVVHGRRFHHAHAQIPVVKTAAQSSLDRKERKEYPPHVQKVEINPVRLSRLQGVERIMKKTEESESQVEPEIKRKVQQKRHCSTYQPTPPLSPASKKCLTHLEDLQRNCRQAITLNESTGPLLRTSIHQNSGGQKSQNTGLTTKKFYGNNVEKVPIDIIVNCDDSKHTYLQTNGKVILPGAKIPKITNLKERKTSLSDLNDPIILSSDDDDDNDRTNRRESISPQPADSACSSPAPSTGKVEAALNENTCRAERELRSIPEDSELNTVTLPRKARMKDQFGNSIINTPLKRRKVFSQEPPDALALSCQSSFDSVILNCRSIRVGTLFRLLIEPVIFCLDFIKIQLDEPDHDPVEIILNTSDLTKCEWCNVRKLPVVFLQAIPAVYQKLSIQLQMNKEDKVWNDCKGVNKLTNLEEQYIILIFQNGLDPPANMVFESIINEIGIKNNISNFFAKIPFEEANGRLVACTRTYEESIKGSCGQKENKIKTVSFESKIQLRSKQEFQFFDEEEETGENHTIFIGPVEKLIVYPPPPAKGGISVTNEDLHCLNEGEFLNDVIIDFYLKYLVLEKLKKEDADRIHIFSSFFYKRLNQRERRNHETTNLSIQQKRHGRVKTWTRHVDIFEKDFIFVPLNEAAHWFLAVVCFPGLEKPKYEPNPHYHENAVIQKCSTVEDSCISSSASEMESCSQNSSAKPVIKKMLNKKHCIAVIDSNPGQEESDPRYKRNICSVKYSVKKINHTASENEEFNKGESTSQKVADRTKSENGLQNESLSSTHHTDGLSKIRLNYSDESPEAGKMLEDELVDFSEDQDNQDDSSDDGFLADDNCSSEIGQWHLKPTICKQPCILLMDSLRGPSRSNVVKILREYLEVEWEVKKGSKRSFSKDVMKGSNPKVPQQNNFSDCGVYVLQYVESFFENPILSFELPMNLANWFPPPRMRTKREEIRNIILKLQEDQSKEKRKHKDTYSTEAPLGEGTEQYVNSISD
It is filed as functional.

Experiment [4] has as its target T4, Sentrin-specific protease 8 (Homo sapiens, UniProt Q96LD8).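 Further: luminescence read-out of SENP8 inhibition, dose-response confirmation following an ultra-high-throughput screen.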
T4 sequence (Q96LD8 whole entry): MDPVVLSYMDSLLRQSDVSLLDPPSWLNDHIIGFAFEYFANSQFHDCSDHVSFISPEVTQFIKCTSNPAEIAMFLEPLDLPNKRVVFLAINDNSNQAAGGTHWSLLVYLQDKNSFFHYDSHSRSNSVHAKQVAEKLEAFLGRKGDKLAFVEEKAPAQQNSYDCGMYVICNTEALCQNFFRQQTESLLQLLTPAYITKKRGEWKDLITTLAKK
The experiment is classed as functional.

In experiment [5] the target is T5, Cysteine protease ATG4B (Homo sapiens, UniProt Q9Y4P1).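 Further: Fluorescence-based dose-response confirmation assay measuring inhibition of ATG4B activity.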
T5 sequence (Q9Y4P1 whole entry): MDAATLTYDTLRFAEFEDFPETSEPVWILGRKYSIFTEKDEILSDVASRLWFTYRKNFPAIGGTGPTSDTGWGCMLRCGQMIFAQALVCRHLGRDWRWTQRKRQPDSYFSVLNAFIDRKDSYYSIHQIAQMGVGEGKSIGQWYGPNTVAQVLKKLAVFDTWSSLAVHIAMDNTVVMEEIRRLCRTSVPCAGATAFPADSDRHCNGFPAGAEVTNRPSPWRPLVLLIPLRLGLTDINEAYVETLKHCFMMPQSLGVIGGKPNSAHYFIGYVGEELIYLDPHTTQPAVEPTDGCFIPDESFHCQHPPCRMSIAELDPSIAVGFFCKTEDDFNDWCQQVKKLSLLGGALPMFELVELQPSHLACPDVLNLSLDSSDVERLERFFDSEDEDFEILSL
The experiment is classed as functional.

The target in experiment [6] is Phospholipase A2 (Homo sapiens, UniProt P04054). It is filed as functional.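 Further: confirmatory dose-response counterscreen on phospholipase A2, testing hits that came from an ultra-high-throughput screen for ATG4B inhibitors.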
Chain of Phospholipase A2 (P04054 whole entry): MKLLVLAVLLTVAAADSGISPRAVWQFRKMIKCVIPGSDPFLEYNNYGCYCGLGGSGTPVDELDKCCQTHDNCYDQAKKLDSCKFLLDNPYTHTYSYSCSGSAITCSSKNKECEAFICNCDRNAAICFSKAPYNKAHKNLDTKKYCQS
A short description of experiment [7]: viability of uninfected HEp-2 cells – cell-based, HTS, cytotoxicity control for RSV inhibitor project, dose response (AID 2410). The experiment is classed as functional. Conditions: human respiratory syncytial virus.
Experiment [8] concerns the target T6, Small ubiquitin-related modifier 1 (Homo sapiens, UniProt P63165). Briefly: SUMO1 protein interaction blockers, potency – biochemical, fluorescence polarization, uHTS hits, dose response (AID 624382). The experiment is classed as functional. The settings on record: read-out: IC50_Mean. In general terms: In fluorescence polarisation assays a small probe gives low polarisation when free and higher when bound to something large.

Experiment [9] has as its target T6, Small ubiquitin-related modifier 1. Kind of experiment: SUMO1 protein-protein binding blockers, potency – biochemical, FRET, dose response (AID 624383). It is filed as functional. Conditions: read-out: IC50_Mean.
Experiment [10] in a line: Counterscreen for inhibitors of Trypanosoma brucei methionyl tRNA synthetase (MetRS): Luminescence-based cell-based high throughput dose response assay to identify compounds that are cytotoxic to Jurkat human T lymphocyte cells. The experiment is classed as functional. On the technique in general: The purpose of a counterscreen is to sort out artefacts and off-target activity.

In experiment [11] the target is T7, Methionyl-tRNA synthetase, putative (Trypanosoma brucei brucei, UniProt Q38C91).
T7 sequence (Q38C91 whole entry): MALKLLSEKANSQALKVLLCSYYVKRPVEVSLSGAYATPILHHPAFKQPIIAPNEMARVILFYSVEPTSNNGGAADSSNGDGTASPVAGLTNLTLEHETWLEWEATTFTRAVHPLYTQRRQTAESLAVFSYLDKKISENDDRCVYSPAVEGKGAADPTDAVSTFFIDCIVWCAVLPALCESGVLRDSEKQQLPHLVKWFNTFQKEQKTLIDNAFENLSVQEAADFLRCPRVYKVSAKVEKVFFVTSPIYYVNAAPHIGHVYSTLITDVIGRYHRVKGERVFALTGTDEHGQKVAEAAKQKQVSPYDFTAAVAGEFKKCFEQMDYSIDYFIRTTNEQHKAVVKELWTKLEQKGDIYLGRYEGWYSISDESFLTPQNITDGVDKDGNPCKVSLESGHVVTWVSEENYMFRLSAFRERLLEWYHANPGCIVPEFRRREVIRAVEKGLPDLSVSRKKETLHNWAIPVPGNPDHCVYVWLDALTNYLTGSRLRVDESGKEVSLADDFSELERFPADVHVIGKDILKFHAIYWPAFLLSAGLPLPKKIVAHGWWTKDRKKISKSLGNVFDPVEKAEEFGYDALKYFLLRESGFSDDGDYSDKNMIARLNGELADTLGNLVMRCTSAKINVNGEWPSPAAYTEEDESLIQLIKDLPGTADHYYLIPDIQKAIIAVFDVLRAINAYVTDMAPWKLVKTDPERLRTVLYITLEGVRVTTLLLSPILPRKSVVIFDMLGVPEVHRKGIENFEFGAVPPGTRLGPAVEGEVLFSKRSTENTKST
The experiment is classed as functional, Trypanosoma brucei brucei strain 927/4 GUTat10.1.

Experiment [12] has as its target T7, Methionyl-tRNA synthetase, putative. The experiment is classed as functional, Trypanosoma brucei brucei strain 927/4 GUTat10.1. This is another data set of the same source.
Experiment [13] deals with Dual specificity tyrosine-phosphorylation-regulated kinase 1A (Rattus norvegicus, UniProt Q63470). The experiment is classed as biochemical, Homo sapiens.
Experiment [14] deals with P388/ADR. Kind of experiment: cells. The experiment is classed as functional. Conditions: Mus musculus.
The test system of experiment [15] is SN12K1. Briefly: cells. The experiment is classed as functional. The settings on record: Homo sapiens.
Experiment [16] relates to P388. Kind of experiment: cells. It is filed as functional. Conditions: Mus musculus.
Experiment [17] can be described thus: intracellular Trypanosoma cruzi inhibitors in host cells – cell-based, plate reader, cherry-pick samples, set 3, dose response (AID 651818).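 Further: compounds incubated with infected cells for about four days.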 It is filed as functional.

Calls of active or inactive are those of the source.

T6 sequence (P63165 whole entry): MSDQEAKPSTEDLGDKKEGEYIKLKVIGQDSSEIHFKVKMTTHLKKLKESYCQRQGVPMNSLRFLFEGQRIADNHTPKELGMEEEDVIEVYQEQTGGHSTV

Regarding `Cc1ccc(-c2nnc(SCc3ccccc3F)o2)cc1`, the IC50 was 17.7 µM (active) in experiment [1]; 5.03 µM (active) in experiment [2]; 14.6 µM (active) in experiment [3]; 21.4 µM (active) in experiment [4]; 14.5 µM (active) in experiment [5]; 7.21 µM (active) in experiment [6].
For the compound `CCCCCCC(=O)Nc1nc(C)c(-c2csc(Nc3cccc(OC)c3)n2)s1`, the CC50 in [7] was 18.4 µM (active). The IC50 in experiment [8] is > 66.6 µM (inactive); in experiment [9], 12.9 µM (active).
Take `Clc1ccc2[nH]c(C3CCN(Cc4nnnn4C4CCCCC4)CC3)nc2c1`: in experiment [10], the IC50 is 14.5 µM (inactive).
As for `Clc1ccc2nc(C3CCN(Cc4nnnn4C4CCCCC4)CC3)[nH]c2c1`, the values for the IC50 in experiment [11] and in [12] were 7.33 µM (active) and 2.91 µM (active), respectively.
Take `COc1ccc(/C=C/C(=O)Nc2cccc(C(C)=O)c2)cc1`: the AC50 in experiment [13] was 3.68 µM (active).
As to `COc1ccc(C(=O)Nc2ccc(C(=O)Nc3nccs3)cc2)cc1[N+](=O)[O-]`, the figures for the IC50 in experiment [8] and in experiment [9] were > 66.6 µM (inactive) and 9.87 µM (active), respectively.
Take `C[C@H](O)[C@@H]1C(=O)N2CCc3c([nH]c4ccccc34)[C@@H]2C[C@@H]1N(C)Cc1ccc(Cl)cc1`: the IC50 in [11] was 1.49 µM (active); in experiment [10], 57.9 µM (inactive); in [12], 0.974 µM (active).
On to `CCN(CC)CCNC(=O)C1COc2ccc(-c3cc(=O)c4ccccc4o3)cc2O1` (configuration not stated), for which the GI50 in [14] was 12.3 µM (inactive); in experiment [15], 16.8 µM (inactive); in experiment [16], 0.29 µM (active).
Consider `COc1cc2c(cc1OC)C(Cl)C(c1ccc(Br)cc1)=C2Cl` (configuration not stated), for which the figures for the GI50 in experiment [14], in experiment [15] and in experiment [16] were 3.78 µM (inactive), 15.6 µM (inactive) and 3.94 µM (inactive), respectively.
The matching figures for `CCOC(=O)/C(O)=C1\C(=O)N(C)C(=O)C1c1cccc(OC)c1` (configuration not stated): > 100 µM (inactive), > 100 µM (inactive) and > 100 µM (inactive).
As for `O=S(=O)(O)c1cc(/N=[N+](\[O-])c2ccc(/N=N/c3ccccc3)cc2S(=O)(=O)O)ccc1/C=C/c1ccc(/N=[N+](\[O-])c2ccc(/N=N/c3ccccc3)cc2S(=O)(=O)O)cc1S(=O)(=O)O`, the GI50 in [15] was > 31.6 µM (inactive); in experiment [16], > 100 µM (inactive).
With `C[C@H]1CN([C@@H](C)CO)C(=O)c2cccc(NC(=O)c3ccncc3)c2O[C@@H]1CN(C)CC1CCCCC1`, in [17], the AC50 was 0.365 µM (active).
Still for that read-out and setting: in the case of `C[C@H](CO)N1C[C@H](C)[C@@H](CN(C)CC2CC2)Oc2c(NC(=O)Nc3ccc4c(c3)OCO4)cccc2C1=O` it was 20 µM (inactive).
As for `Cc1ccc(S(=O)(=O)N(C)C[C@H]2Oc3c(NC(=O)c4ccc(-c5nccs5)cc4)cccc3C(=O)N([C@H](C)CO)C[C@@H]2C)cc1`, the AC50 in experiment [17] was 8.72 µM (active).
